Laboratory results taken from patent publication US20220184222A1, “BICYCLE TOXIN CONJUGATES AND USES THEREOF” (BicycleTx Limited, priority 2019, published 2022).
Starred links: 1 amine or outer side, 2 acyl side, 3 side chain; linkers in the order of their positions; H or OH if unused. Non-standard residues stand in square brackets, D forms with d. Residues, ends and D or L forms follow the SMILES beside them. *: point of attachment. Dolaproine = CO[C@@H]([C@@H]1CCCN1)[C@@H](C)C(=O)O; Dil = CC[C@H](C)[C@H](NC)[C@@H](CC(=O)O)OC; PABC = O=C(OCc1ccc(N[*:1])cc1)[*:2]; X1 = O=C(CCCC(=O)*)ON1C(=O)CCC1=O; X2 = C[C@@H](N*)[C@@H](O)c1ccccc1; Cit = NC(=O)NCCC[C@H](N)C(=O)O; NMeV = CN[C@H](C(=O)O)C(C)C

Key:
Panc163 = test: PDAC PDX Panc163 xenograft efficacy (Example 5); assay type: in vivo, NSG mice; conditions: 3 mg/kg intravenously weekly, 4-week treatment period
Method: BT5528 and Vehicle were prepared as described in the examples above, and tested in treatment of Pancreatic Ductal Adenocarcinoma (PDAC) in PDX models. PDX models effectively capture patient responses to oncology therapy in a heterogeneous cohort of patients with solid tumors with 80-100% correlation between the PDX and patient response (Izumchenko et al. 2017)
Pancreatic ductal adenocarcinoma patient derived xenograft tumors (PDAC PDX; Panc033 and Panc163) were implanted subcutaneously from source tumors into the flank of NSG mice. Tumor bearing animals were randomized to receive intravenously a weekly dosing of vehicle or 3 mg/kg BT5528. Tumor sizes were monitored by caliper measurements.

CTG-0170 = test: Champions TumorGraft NSCLC PDX efficacy, model CTG-0170; assay type: in vivo, Mus musculus
Method: (§1) Mice were implanted subcutaneously into the left flank with tumor fragments from one of the various models. After tumors grew to an average of 150-300 mm^3, mice were treated by IV administration Q7Dx4 (n=2) with vehicle or 3 mg/kg of BT5528. Effects on tumor growth were evaluated by measuring percent tumor growth inhibition (% TGI), and the number of complete responders (CR), partial responders (PR), and tumor-free survivors (TFS). Tolerability was assessed by body weight loss, lethality, and clinical signs of adverse treatment-related side effects. Tumor volumes and body weights were measured twice a week.
(§2) Dosing solutions of BT5528 […] were pre-formulated. These dosing solutions were stored at −80° C. in the dark. On each day of dosing, a frozen aliquot of each test agent was thawed, stored at 2-8° C. and used for dosing.
(§3) The animals used in this study are described below: • Species: Mus musculus • Strain: Athymic Nude-Foxn1^nu (immune-compromised) • Source: Envigo (Indianapolis, Ind., USA) • Number of animals per group: 2 • Age and sex: At least 6-8 weeks of age at start of dosing, female • Weight: At least 18 grams at start of dosing • Acclimation period: 3 days
(§4) Stock mice were implanted with tumor cells from Champions TumorGraft® models CTG-0160, CTG-0170, CTG-0178, CTG-0192, CTG-0363, CTG-0808, CTG-0838, CTG-0848, CTG-1212, CTG-1502, CTG-1535, CTG-2011, CTG-2393, CTG-2539 or CTG-2540. After the tumors reached 1000-1500 mm^3, they were harvested and the tumor fragments (approximately 5×5×5 mm^3) were implanted SC in the left flank of the female study mice. Each animal was implanted with a specific passage lot and documented. Tumor growth was monitored twice a week using digital calipers and the tumor volume (TV) was calculated using the formula (0.52×[length×width^2]). When the TV reached an average volume of 150-300 mm^3, animals were matched by tumor size and assigned into Vehicle Control and treatment groups (n=2/group) and dosing was initiated on Day 0. After the initiation of dosing on Day 0, animals were weighed twice per week using a digital scale and TV was measured twice per week and also on the final day of study. The study was completed when the mean tumor volume of Vehicle Control reached 1500 mm^3 or up to Day 60, whichever occurred first.
(§5) Beginning on Day 0, animals were observed daily and weighed twice weekly using a digital scale; data including individual and mean gram weights, mean percent weight change versus Day 0 (% vD0) were recorded for each group and % vD0 plotted at study completion. […] Treatment resulting in a mean % vD0>20% and/or >10% mortality was considered above the maximum tolerated dose. Maximum mean % vD0 (weight nadir) for each treatment group was reported at study completion.
(§6) Inhibition of tumor growth was determined by calculating the percent TGI (100%×[1−(final MTV−initial MTV of a treated group)/(final MTV−initial MTV of the control group)]). Treatment started on Day 0.
(§7) Additional endpoints used to evaluate efficacy were: the number of complete responders (CR), partial responders (PR), and tumor-free survivors (TFS). PRs were considered exclusive of CRs, as were TFS.
(§8) Statistical analyses of anti-tumor efficacy were performed using one-way ANOVA followed by Dunnett's multiple comparisons test (GraphPad Prism version 8.2.0). Significant p-values=<0.05.
Animals were dosed according to the schedule on Table 7-1. The Vehicle Control group reached endpoint of average tumor volume >1500 mm^3 on Day 14 and was removed from the study. The study was terminated on Day 28. […] Therefore, the tumor volumes on Day 11 were used for analysis of anti-tumor activity in order to include all animals.

CTG-0178 = test: Champions TumorGraft NSCLC PDX efficacy, model CTG-0178; assay type: in vivo, Mus musculus
Method: as §1, §2, §3, §4, §5, §6, §7, §8
(§9) Animals were dosed according to the schedule on Table 7-1. The study was terminated on Day 28.

CTG-0808 = test: Champions TumorGraft NSCLC PDX efficacy, model CTG-0808; assay type: in vivo, Mus musculus
Method: as §1, §2, §3, §4, §5, §6, §7, §8
Animals were dosed according to the schedule on Table 7-1. The Vehicle Control reached endpoint on Day 14 and the study was terminated on Day 28.

CTG-0363 = test: Champions TumorGraft NSCLC PDX efficacy, model CTG-0363; assay type: in vivo, Mus musculus
Method: as §1, §2, §3, §4, §5, §6, §7, §8, §9

CTG-1502 = test: Champions TumorGraft NSCLC PDX efficacy, model CTG-1502; assay type: in vivo, Mus musculus
Method: as §1, §2, §3, §4, §5, §6, §7, §8
Animals were dosed according to the schedule on Table 7-1. The Vehicle Control reached endpoint on Day 17 and the study was terminated on Day 28.

[1] = CTG-0170, 3 mg/kg IV Q7Dx4, Day 0-28
[2] = CTG-0178, 3 mg/kg IV Q7Dx4, Day 0-28
[3] = CTG-0808, 3 mg/kg IV Q7Dx4, Day 0-28
[4] = CTG-0363, 3 mg/kg IV Q7Dx4, Day 0-28
[5] = CTG-1502, 3 mg/kg IV Q7Dx4, Day 0-28

Question: Which “anti-tumor activity (tumor size by caliper)” value (Panc163) does the source give for `CC[C@H](C)[C@@H]([C@@H](CC(=O)N1CCC[C@H]1[C@H](OC)[C@@H](C)C(=O)N[C@H](C)[C@@H](O)c1ccccc1)OC)N(C)C(=O)[C@@H](NC(=O)[C@H](C(C)C)N(C)C(=O)OCc1ccc(NC(=O)[C@H](CCCNC(N)=O)NC(=O)[C@@H](NC(=O)CCCC(=O)ON2C(=O)CCC2=O)C(C)C)cc1)C(C)C` [BT5528] (X1-V[Cit][PABC][NMeV]V[Dil][Dolaproine]-X2) here?
Answer: significant anti-tumor activity from reduced tumor growth rate to decreasing tumor volumes

Question: And the “body weight and tolerability of the other animal in the group” value (CTG-0170; 3 mg/kg IV Q7Dx4)?
Answer: no body weight loss and tolerated the BT5528 well

Question: What about the “prior body weight loss of the animal found dead on Day 14” value (CTG-0170; 3 mg/kg IV Q7Dx4) of the same compound?
Answer: 24.8%

Question: And the “MTV (mean tumor volume)” value (CTG-0170; 3 mg/kg IV Q7Dx4, Day 11)?
Answer: 268±15 mm^3

Question: What about the TGI (CTG-0170; 3 mg/kg IV Q7Dx4, Day 11) of the same compound?
Answer: 94%

Question: And the animals found dead (CTG-0170; 3 mg/kg IV Q7Dx4, n=2, cause of death unknown)?
Answer: one animal in the BT5528 group was found dead on Day 14

Question: And the “# CR (complete responders)” value (CTG-0170; [1])?
Answer: 0/0/0

Question: And the “# PR (partial responders)” value (CTG-0170; [1])?
Answer: 0/0/0

Question: What about the “# TFS (tumor-free survivors)” value (CTG-0170; [1]) of the same compound?
Answer: 0/0/0

Question: And the “% TGI” value (CTG-0170; CTG-0170, 3 mg/kg IV Q7Dx4, Day 11)?
Answer: 94%

Question: What about the “Day 11 Tumor Volume Mean TV ± SEM” value (CTG-0170; CTG-0170, BT5528 3 mg/kg IV Q7Dx4, Day 11, n=2) of the same compound?
Answer: 268 ± 15 mm^3

Question: What about the “mean body weight loss” value (CTG-0178; 3 mg/kg IV Q7Dx4) of the same compound?
Answer: minor mean body weight losses on Day 18

Question: And the “MTV (mean tumor volume)” value (CTG-0178; 3 mg/kg IV Q7Dx4, Day 28)?
Answer: 1145±271 mm^3

Question: And the TGI (CTG-0178; 3 mg/kg IV Q7Dx4, Day 28)?
Answer: 16%

Question: And the “# CR (complete responders)” value (CTG-0178; [2])?
Answer: 0/0/0

Question: And the “# PR (partial responders)” value (CTG-0178; [2])?
Answer: 0/0/0

Question: And the “# TFS (tumor-free survivors)” value (CTG-0178; [2])?
Answer: 0/0/0

Question: And the “% TGI” value (CTG-0178; CTG-0178, 3 mg/kg IV Q7Dx4, Day 28)?
Answer: 16%

Question: And the “Day 28 Tumor Volume Mean TV ± SEM” value (CTG-0178; CTG-0178, BT5528 3 mg/kg IV Q7Dx4, Day 28, n=2)?
Answer: 1145 ± 271 mm^3

Question: And the “MTV (mean tumor volume)” value (CTG-0808; 3 mg/kg IV Q7Dx4, Day 14)?
Answer: 541±4 mm^3

Question: And the TGI (CTG-0808; 3 mg/kg IV Q7Dx4, Day 14)?
Answer: 76%

Question: And the “# CR (complete responders)” value (CTG-0808; [3])?
Answer: 0/0/0

Question: What about the “# PR (partial responders)” value (CTG-0808; [3]) of the same compound?
Answer: 0/0/0

Question: What about the “# TFS (tumor-free survivors)” value (CTG-0808; [3]) of the same compound?
Answer: 0/0/0

Question: What about the “% TGI” value (CTG-0808; CTG-0808, 3 mg/kg IV Q7Dx4, Day 14) of the same compound?
Answer: 76%

Question: What about the “Day 14 Tumor Volume Mean TV ± SEM” value (CTG-0808; CTG-0808, BT5528 3 mg/kg IV Q7Dx4, Day 14, n=2) of the same compound?
Answer: 541 ± 4 mm^3

Question: What about the “mean body weight loss” value (CTG-0363; 3 mg/kg IV Q7Dx4) of the same compound?
Answer: no mean body weight loss

Question: And the “MTV (mean tumor volume)” value (CTG-0363; 3 mg/kg IV Q7Dx4, Day 28)?
Answer: 1609±18 mm^3

Question: And the TGI (CTG-0363; 3 mg/kg IV Q7Dx4, Day 28)?
Answer: 26%

Question: And the “# CR (complete responders)” value (CTG-0363; [4])?
Answer: 0/0/0

Question: What about the “# PR (partial responders)” value (CTG-0363; [4]) of the same compound?
Answer: 0/0/0

Question: And the “# TFS (tumor-free survivors)” value (CTG-0363; [4])?
Answer: 0/0/0

Question: And the “% TGI” value (CTG-0363; CTG-0363, 3 mg/kg IV Q7Dx4, Day 28)?
Answer: 26%

Question: What about the “Day 28 Tumor Volume Mean TV ± SEM” value (CTG-0363; CTG-0363, BT5528 3 mg/kg IV Q7Dx4, Day 28, n=2) of the same compound?
Answer: 1609 ± 18 mm^3

Question: What about the “MTV (mean tumor volume)” value (CTG-1502; 3 mg/kg IV Q7Dx4, Day 17) of the same compound?
Answer: 976±229 mm^3

Question: What about the TGI (CTG-1502; 3 mg/kg IV Q7Dx4, Day 17) of the same compound?
Answer: 48%

Question: What about the “# CR (complete responders)” value (CTG-1502; [5]) of the same compound?
Answer: 0/0/0

Question: And the “# PR (partial responders)” value (CTG-1502; [5])?
Answer: 0/0/0

Question: And the “# TFS (tumor-free survivors)” value (CTG-1502; [5])?
Answer: 0/0/0

Question: What about the “% TGI” value (CTG-1502; CTG-1502, 3 mg/kg IV Q7Dx4, Day 17) of the same compound?
Answer: 48%

Question: What about the “Day 17 Tumor Volume Mean TV ± SEM” value (CTG-1502; CTG-1502, BT5528 3 mg/kg IV Q7Dx4, Day 17, n=2) of the same compound?
Answer: 976 ± 229 mm^3
